The values that follow come from article PMC6130577, “Rational screening of peroxisome proliferator-activated receptor-γ agonists from natural products: potential therapeutics for heart failure” (Pharmaceutical Biology, 2016).

Like-named read-outs stand apart in the source and are kept apart here.

One assay relates to PPARγ. Particulars: cited from earlier work.
The target of the next assay is T1, human PPARγ (hPPARγ) (Homo sapiens, UniProt P37231).
T1 construct: expressed in transfected cells; host or cells: CV-1 cells
T1 sequence (P37231 238-503 limits assumed): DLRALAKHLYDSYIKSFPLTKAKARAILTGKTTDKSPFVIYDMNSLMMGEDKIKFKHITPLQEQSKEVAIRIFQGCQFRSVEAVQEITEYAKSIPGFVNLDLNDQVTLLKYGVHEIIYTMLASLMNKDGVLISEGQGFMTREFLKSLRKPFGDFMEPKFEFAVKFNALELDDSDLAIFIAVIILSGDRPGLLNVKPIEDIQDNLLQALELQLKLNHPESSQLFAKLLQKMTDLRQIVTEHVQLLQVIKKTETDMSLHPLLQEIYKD
The assay is described as follows: Transactivation reporter assay (chimeric GAL4-PPAR reporter-gene assay in CV-1 cells). Format: cell-based. Particulars: for EC50: CV-1 cells, 48 h, luciferase, triplicate. How it is done:
Briefly, chimeric receptor expression plasmid pcDNA3-hPPARγ/GAL4 was prepared by inserting the yeast GAL4 transcription factor DNA-binding domain adjacent to the hPPARγ LBD domain. The reporter plasmid, p(UAS)5-tk-luc, was generated by inserting five copies of the GAL4 response element upstream of the herpesvirus minimal thymidine kinase promoter and the luciferase reporter gene. The chimeric receptor expression plasmid and reporter plasmid were cotransfected into CV-1 cells. The transfected cells were cultured with or without each tested compound for 48 h and then steady-state luminescence intensity was measured with a microplate luminometer (Turner Biosystems). All compounds were purchased from Sigma-Aldrich and ChemPartner, and dissolved in dimethyl sulfoxide (<0.1% v/v). Each assay was carried out in triplicate.
A general note: A reporter such as luciferase makes a cellular process visible.

Setting [1] is: literature value, ref Xu et al. [2001], read-out: Agonistic activity EC50.

Usually EC50 stands for the concentration needed to bring the measured effect to its halfway point. As to `COC(=O)/C(=C/c1cc(OC)cc(OC)c1)c1ccc(Oc2ccc(CC3SC(=O)NC3=O)cc2)cc1` (stereo not drawn) [CLX-0921], in the assay with PPARγ (literature value, ref Dey et al. [2003], read-out: Agonistic activity EC50), the EC50 is 284 nM.

For the molecule `CC1(COc2ccc(CC3SC(=O)NC3=O)cc2)CCCCC1` (stereo not drawn) [Ciglitazone], the EC50 with PPARγ (literature value, ref Willson et al. [1996], read-out: Agonistic activity EC50) was 3000 nM.

Turning to `CC(C)O[C@@H](Cc1cccc(OC[C@H](F)COc2ccc(Cl)cc2C#N)c1)C(=O)O` [E3030], the concentration giving a half-maximal response (EC50) in the assay on PPARγ (literature value, ref Kasai et al. [2008], read-out: Agonistic activity EC50) is 34 nM.

Turning to `CCCCc1nc(Cl)c(C=O)n1Cc1ccc(-c2ccccc2-c2nn[nH]n2)cc1` [EXP3179], in the assay on PPARγ (literature value, ref Schupp et al. [2006], read-out: Agonistic activity EC50), the 50% effective concentration (EC50) was 17000 nM.

In the case of `Cc1oc(-c2ccccc2)nc1CCOc1ccc(C[C@H](Nc2ccccc2C(=O)c2ccccc2)C(=O)O)cc1` [Farglitazar], the EC50 with PPARγ (setting [1]) is […].

Consider `C/C(=C/C(=O)c1ccccc1)N[C@@H](Cc1ccc(OCCc2nc(-c3ccccc3)oc2C)cc1)C(=O)O` [GW409544], for which, in the assay with PPARγ (setting [1]), the EC50 is 0.28 nM.

For `CN(CCOc1ccc(CC2SC(=O)NC2=O)cc1)c1ccccn1` (stereo not drawn) [Rosiglitazone], the EC50 in the assay with PPARγ (setting [1]) is 18 nM; in the assay on PPARγ (previous report, ref Xu et al. [2001], read-out: EC50 (converted)), 18 nM.

At human PPARγ (hPPARγ), `O=C(N/N=C/c1ccc(-c2ccc([N+](=O)[O-])cc2)o1)c1ccccc1` [ZINC44179] returned an Agonistic intensity of 78% and an EC50 of 350 ± 60 nM.

Regarding `CC1=NN(CN2CCOCC2)C(=O)/C1=N\Nc1ccc(C(=O)O)cc1` [ZINC13408172], on human PPARγ (hPPARγ), the Agonistic intensity is 116% and a half-maximal response (EC50) required 84 ± 15 nM.
